Data on 26 compounds can be found in US7795261B2, “Substituted 1-piperidin-4-yl-4-pyrrolidin-3-yl-piperazine derivatives and their use as neurokinin antagonists” (Janssen Pharmaceutica NV, priority 2002, dated 2010).

Holding throughout (format): cell-based
One experiment deals with NK1 (Homo sapiens, UniProt P25103). Put plainly: Signal transduction (ST), intracellular Ca++ (FLIPR), NK1 antagonistic activity. Conditions: read-out: pIC50 NK1 (converted). In outline:
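Confluent cells loaded with 2 μM Fluo3 (1 h, 37 °C, probenecid), preincubated 20 min at RT with antagonist concentration range, then agonist added. Peak Ca++ transient read by FLIPR in Krebs buffer pH 7.4; IC50 by non-linear regression.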

In the next experiment the target is T1, NK2 (Homo sapiens, UniProt P21452).
T1 sequence (P21452 1-398): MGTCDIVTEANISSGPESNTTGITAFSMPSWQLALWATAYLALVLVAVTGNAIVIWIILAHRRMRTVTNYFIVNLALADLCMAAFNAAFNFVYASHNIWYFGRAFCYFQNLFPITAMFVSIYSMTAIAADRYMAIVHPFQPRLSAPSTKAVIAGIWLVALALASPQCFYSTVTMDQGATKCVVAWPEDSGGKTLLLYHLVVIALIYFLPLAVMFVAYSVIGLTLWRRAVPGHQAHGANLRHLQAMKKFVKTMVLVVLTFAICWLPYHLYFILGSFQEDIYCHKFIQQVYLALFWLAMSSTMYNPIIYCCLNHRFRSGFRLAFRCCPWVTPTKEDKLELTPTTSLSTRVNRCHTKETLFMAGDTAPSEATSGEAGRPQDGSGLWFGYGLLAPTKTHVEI
Put plainly: Signal transduction (ST), intracellular Ca++ (FLIPR), NK2. Conditions: read-out: pIC50 NK2 (converted).

The target in the next experiment is T2, NK3 (Homo sapiens, UniProt P29371).
T2 sequence (P29371 1-465): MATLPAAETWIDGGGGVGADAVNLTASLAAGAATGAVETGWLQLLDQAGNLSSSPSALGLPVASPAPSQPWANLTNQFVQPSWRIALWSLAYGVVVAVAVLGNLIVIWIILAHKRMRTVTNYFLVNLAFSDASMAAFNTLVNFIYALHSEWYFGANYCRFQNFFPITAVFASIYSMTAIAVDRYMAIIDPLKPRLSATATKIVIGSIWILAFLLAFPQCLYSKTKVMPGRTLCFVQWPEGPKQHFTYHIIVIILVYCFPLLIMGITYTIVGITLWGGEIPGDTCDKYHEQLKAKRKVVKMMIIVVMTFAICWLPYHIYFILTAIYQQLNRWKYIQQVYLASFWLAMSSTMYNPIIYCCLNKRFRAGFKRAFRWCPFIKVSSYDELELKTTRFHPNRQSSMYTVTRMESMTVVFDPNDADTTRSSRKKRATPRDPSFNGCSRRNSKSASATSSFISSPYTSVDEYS
The experiment is described as follows: Signal transduction (ST), intracellular Ca++ (FLIPR), NK3. Conditions: read-out: pIC50 NK3 (converted).

Sequence of NK1 (P25103 whole entry): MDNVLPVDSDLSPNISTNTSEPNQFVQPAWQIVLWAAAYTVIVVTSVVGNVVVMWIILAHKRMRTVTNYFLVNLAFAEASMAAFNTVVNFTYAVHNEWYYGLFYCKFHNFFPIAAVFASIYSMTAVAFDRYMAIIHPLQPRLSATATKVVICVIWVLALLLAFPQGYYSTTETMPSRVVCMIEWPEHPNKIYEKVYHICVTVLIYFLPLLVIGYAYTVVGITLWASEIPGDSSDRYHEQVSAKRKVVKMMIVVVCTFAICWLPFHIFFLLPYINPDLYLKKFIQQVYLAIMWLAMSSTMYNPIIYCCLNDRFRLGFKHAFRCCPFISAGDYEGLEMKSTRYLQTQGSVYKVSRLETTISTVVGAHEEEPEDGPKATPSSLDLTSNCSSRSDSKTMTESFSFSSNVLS

Consider `O=C(c1ccc(O)cc1)N1CCC(N2CCN([C@H]3CCN(C(=O)c4cc(C(F)(F)F)cc(C(F)(F)F)c4)[C@H](Cc4ccccc4)C3)CC2)C1` (stereo partly drawn) [Compound 341], for which the IC50 at NK1 was 10 nM; on NK2, 2000 nM; at NK3 it was 3160 nM.

As to `O=C(c1cc(C(F)(F)F)cc(C(F)(F)F)c1)N1CCC(N2CCN(C3CCN(S(=O)(=O)c4cc(CCO)cs4)C3)CC2)CC1Cc1ccccc1` (stereo not drawn) [Compound 342], the figures for the IC50 at NK1, at NK2 and at NK3 were 5.01 nM, 126 nM and 398 nM, respectively.

Regarding `COc1cccc(NC(=O)N2CCC(N3CCN(C4CCN(C(=O)c5cc(C(F)(F)F)cc(C(F)(F)F)c5)C(Cc5ccccc5)C4)CC3)C2)c1` (stereo not drawn) [Compound 343], the values for the IC50 on NK1, at NK2 and at NK3 were 31.6 nM, 3160 nM and 7940 nM, respectively.

For `O=C(OCc1ccccc1C(=O)N1CCC(N2CCN([C@H]3CCN(C(=O)c4cc(C(F)(F)F)cc(C(F)(F)F)c4)[C@H](Cc4ccccc4)C3)CC2)C1)c1ccccc1` (stereo partly drawn) [Compound 346], the IC50 was 63.1 nM on NK1, 1580 nM on NK2 and 1260 nM at NK3.

For `COc1cccc(S(=O)(=O)N2CCC(N3CCN([C@H]4CCN(C(=O)c5cc(C(F)(F)F)cc(C(F)(F)F)c5)[C@H](Cc5ccccc5)C4)CC3)C2)c1` (stereo partly drawn) [Compound 347], the IC50 on NK1 was 20 nM; on NK2, 631 nM; on NK3, 2510 nM.

On to `O=C(c1cc(C(F)(F)F)cc(C(F)(F)F)c1)N1CC[C@H](N2CCN(C3CCN(S(=O)(=O)c4cccc(O)c4)C3)CC2)C[C@H]1Cc1ccccc1` (stereo partly drawn) [Compound 348], for which the IC50 on NK1 was 10 nM; on NK2 it was 316 nM; on NK3, 2000 nM.

Turning to `O=C(c1cc(C(F)(F)F)cc(C(F)(F)F)c1)N1CCC(N2CCN(C3CCN(C(CO)c4ccsc4)C3)CC2)CC1Cc1ccccc1` (stereo not drawn) [Compound 349], the IC50 on NK1 was 31.6 nM; at NK2, 2510 nM; at NK3 it was 6310 nM.

Take `COc1ccc(C(=O)N2CCC(N3CCN([C@H]4CCN(C(=O)c5cc(C(F)(F)F)cc(C(F)(F)F)c5)[C@H](Cc5ccccc5)C4)CC3)C2)s1` (stereo partly drawn) [Compound 350]: the values for the IC50 on NK1, on NK2 and at NK3 were 12.6 nM, 5010 nM and 5010 nM, respectively.

Turning to `O=C(c1cc(C(F)(F)F)cc(C(F)(F)F)c1)N1CC[C@H](N2CCN(C3CCN(S(=O)(=O)c4ccc(CCO)s4)C3)CC2)C[C@H]1Cc1ccccc1` (stereo partly drawn) [Compound 351], the IC50 at NK1 is 10 nM; on NK2 it was 251 nM; on NK3 it was 1000 nM.

With `O=C(c1cc(COCc2ccccc2)cs1)N1CCC(N2CCN([C@H]3CCN(C(=O)c4cc(C(F)(F)F)cc(C(F)(F)F)c4)[C@H](Cc4ccccc4)C3)CC2)C1` (stereo partly drawn) [Compound 352], the IC50 at NK1 was 63.1 nM; at NK2 it was 6310 nM; at NK3, 3160 nM.

With `O=C(c1sccc1COCc1ccccc1)N1CCC(N2CCN([C@H]3CCN(C(=O)c4cc(C(F)(F)F)cc(C(F)(F)F)c4)[C@H](Cc4ccccc4)C3)CC2)C1` (stereo partly drawn) [Compound 353], the IC50 at NK1 is 25.1 nM; at NK2, 3160 nM; on NK3, 794 nM.

For the compound `COc1ccc(NC(=NC#N)N2CCC(N3CCN([C@H]4CCN(C(=O)c5cc(C(F)(F)F)cc(C(F)(F)F)c5)[C@H](Cc5ccccc5)C4)CC3)C2)cc1` (stereo partly drawn) [Compound 355], the IC50 on NK1 was 15.8 nM; at NK2, 5010 nM; on NK3, 6310 nM.

With `O=C(C1CCCCC1)N1CCC(N2CCN(C3CCN(C(=O)c4cc(C(F)(F)F)cc(C(F)(F)F)c4)C(Cc4ccc(F)c(F)c4)C3)CC2)C1` (stereo not drawn) [Compound 358], the IC50 on NK1 is 12.6 nM; at NK2, 3160 nM; on NK3 it was 1580 nM.

On to `O=C(c1ccc(CCO)s1)N1CCC(N2CCN(C3CCN(C(=O)c4cc(C(F)(F)F)cc(C(F)(F)F)c4)C(Cc4ccccc4)C3)CC2)C1` (stereo not drawn) [Compound 359], for which the IC50 on NK1 is 12.6 nM; on NK2, 2510 nM; on NK3, 2000 nM.

As for `O=C(c1sccc1CO)N1CCC(N2CCN([C@H]3CCN(C(=O)c4cc(C(F)(F)F)cc(C(F)(F)F)c4)[C@H](Cc4ccccc4)C3)CC2)C1` (stereo partly drawn) [Compound 360], the IC50 on NK1 is 10 nM; at NK2, 3980 nM; at NK3 it was 1000 nM.

Turning to `O=C(c1sccc1CCOCc1ccccc1)N1CCC(N2CCN([C@H]3CCN(C(=O)c4cc(C(F)(F)F)cc(C(F)(F)F)c4)[C@H](Cc4ccccc4)C3)CC2)C1` (stereo partly drawn) [Compound 361], the IC50 was 79.4 nM at NK1, 1000 nM on NK2 and 631 nM at NK3.

`O=C(c1cc(CCOCc2ccccc2)cs1)N1CCC(N2CCN([C@H]3CCN(C(=O)c4cc(C(F)(F)F)cc(C(F)(F)F)c4)[C@H](Cc4ccccc4)C3)CC2)C1` (stereo partly drawn) [Compound 362]: the IC50 is 126 nM at NK1, 2510 nM at NK2 and 2510 nM at NK3.

Take `O=C(c1cc(CCO)cs1)N1CCC(N2CCN([C@H]3CCN(C(=O)c4cc(C(F)(F)F)cc(C(F)(F)F)c4)[C@H](Cc4ccccc4)C3)CC2)C1` (stereo partly drawn) [Compound 363]: the figures for the IC50 at NK1, on NK2 and at NK3 were 12.6 nM, 3980 nM and 1580 nM, respectively.

With `O=C(c1sccc1CCO)N1CCC(N2CCN([C@H]3CCN(C(=O)c4cc(C(F)(F)F)cc(C(F)(F)F)c4)[C@H](Cc4ccccc4)C3)CC2)C1` (stereo partly drawn) [Compound 369], the IC50 on NK1 was 12.6 nM; at NK2, 3980 nM; at NK3, 631 nM.

Turning to `CC1(C)OCC(CNC(=NC#N)N2CCC(N3CCN(C4CCN(C(=O)c5cc(C(F)(F)F)cc(C(F)(F)F)c5)C(Cc5ccccc5)C4)CC3)C2)O1` (stereo not drawn) [Compound 370], the IC50 was 20 nM at NK1, 6310 nM on NK2 and 7940 nM at NK3.

Turning to `N#CN=C(N1CCOCC1)N1CCC(N2CCN([C@H]3CCN(C(=O)c4cc(C(F)(F)F)cc(C(F)(F)F)c4)[C@H](Cc4ccccc4)C3)CC2)C1` (stereo partly drawn) [Compound 371], the IC50 was 15.8 nM at NK1, 7940 nM at NK2 and 5010 nM on NK3.

With `COc1ccc(S(=O)(=O)N2CCC(N3CCN([C@H]4CCN(C(=O)c5cc(C(F)(F)F)cc(C(F)(F)F)c5)[C@H](Cc5ccccc5)C4)CC3)C2)cc1OC` (stereo partly drawn) [Compound 378], the figures for the IC50 at NK1, at NK2 and at NK3 were 12.6 nM, 1580 nM and 2000 nM, respectively.

For the compound `O=C(c1cc(C(F)(F)F)cc(C(F)(F)F)c1)N1CC[C@H](N2CCN(C3CCN(S(=O)(=O)c4ccccc4COCc4ccccc4)C3)CC2)C[C@H]1Cc1ccccc1` (stereo partly drawn) [Compound 401], the IC50 was 251 nM at NK1, 3160 nM at NK2 and 1260 nM on NK3.

For the compound `CC1(C)OC(=O)C[C@H]1C(=O)N1CCC(N2CCN([C@H]3CCN(C(=O)c4cc(C(F)(F)F)cc(C(F)(F)F)c4)[C@H](Cc4ccccc4)C3)CC2)C1` (stereo partly drawn) [Compound 404], the IC50 was 6.31 nM at NK1, 5010 nM at NK2 and 79.4 nM on NK3.

For `COc1ccc(OC)c(S(=O)(=O)N2CCC(N3CCN([C@H]4CCN(C(=O)c5cc(C(F)(F)F)cc(C(F)(F)F)c5)[C@H](Cc5ccccc5)C4)CC3)C2)c1` (stereo partly drawn) [Compound 411], the IC50 on NK1 was 20 nM; at NK2 it was 2510 nM; on NK3 it was 1000 nM.

For the compound `COc1ccc(Cl)cc1S(=O)(=O)N1CCC(N2CCN([C@H]3CCN(C(=O)c4cc(C(F)(F)F)cc(C(F)(F)F)c4)[C@H](Cc4ccccc4)C3)CC2)C1` (stereo partly drawn) [Compound 412], the figures for the IC50 on NK1, at NK2 and on NK3 were 79.4 nM, 2510 nM and 5010 nM, respectively.
